# Results published in article PMC9127750, “Structure-based design of CDC42 effector interaction inhibitors for the treatment of cancer” (Cell reports, 2022).
# Tested on: WM3248 melanoma cells, 486 antibodies
# Experiment: Reverse phase protein arrays (RPPA)
# Type: cell-based, Human
# Conditions: 10 uM
# Excerpt: Pellets were snap frozen in liquid nitrogen and shipped to MD Anderson Cancer Center core RPPA facility for RPPA analysis (Table S5). Three biological replicates for each sample were generated.
# Nomenclatures on the RPPA heatmaps: name_of_antibody.species_of_antibody.status_of_antibody. V - antibody validated; C - validation of antibody in progress; Q - antibody nonspecific; E – under evaluation; antibodies raised in M - mouse, G - goat, R - rabbit, or T - rat.
smiles,measurement,setting,value
"CN(C)c1cccc(Nc2cc(-c3ccccc3)nc(C3CCNCC3)n2)c1 [ARN22089, N1,N1-dimethyl-N3-(6-phenyl-2-(piperidin-4-yl)pyrimidin-4-yl)benzene-1,3-diamine]",RPPA PTPN12.R.V Average,average of 3,0.962
same,RPPA PYGB.R.V Average,average of 3,1.021
same,RPPA PYGM.M.C Average,average of 3,1.025
same,RPPA Puma.R.C Average,average of 3,0.968
same,RPPA Pyk2_pY402.R.C Average,average of 3,0.960
same,RPPA RBM15.R.V Average,average of 3,0.873
same,RPPA RIP3.R.C Average,average of 3,0.948
same,RPPA RIP.R.C Average,average of 3,0.978
same,RPPA RPA32_pS4_S8.R.C Average,average of 3,1.083
same,RPPA RRM1.R.C Average,average of 3,0.916
same,RPPA RRM2.R.C Average,average of 3,0.917
same,RPPA RSK1.R.V Average,average of 3,0.967
same,RPPA RSK.R.C Average,average of 3,0.909
same,RPPA Rab11.R.C Average,average of 3,0.990
same,RPPA Rab25.R.V Average,average of 3,0.979
same,RPPA Rad17_pS645.R.V Average,average of 3,1.063
same,RPPA Rad23A.R.C Average,average of 3,0.920
same,RPPA Rad50.R.V Average,average of 3,0.991
same,RPPA Rad51.R.C Average,average of 3,1.083
same,RPPA Raptor.R.V Average,average of 3,0.939
same,RPPA Rb.M.Q Average,average of 3,1.024
same,RPPA Rb_pS807_S811.R.V Average,average of 3,0.952
same,RPPA Rheb.M.C Average,average of 3,1.056
same,RPPA Rictor.R.C Average,average of 3,0.955
same,RPPA Rictor_pT1135.R.V Average,average of 3,1.027
same,RPPA S6.M.V Average,average of 3,0.930
same,RPPA S6_pS235_S236.R.V Average,average of 3,0.713
same,RPPA S6_pS240_S244.R.V Average,average of 3,0.956
same,RPPA SCD.M.V Average,average of 3,1.034
same,RPPA SF2.R.V Average,average of 3,1.005
same,RPPA SFRP1.R.V Average,average of 3,0.965
same,RPPA SGK1.R.V Average,average of 3,1.012
same,RPPA SGK3.R.V Average,average of 3,1.035
same,RPPA SHP2.R.V Average,average of 3,1.004
same,RPPA SHP.2_pY542.R.C Average,average of 3,0.896
same,RPPA SIRPαR.V Average,average of 3,1.009
same,RPPA SLC1A5.R.C Average,average of 3,0.975
same,RPPA SOD1.M.V Average,average of 3,1.031
same,RPPA SOD2.R.V Average,average of 3,1.115
same,RPPA SOX7.R.V Average,average of 3,1.015
same,RPPA STING.R.V Average,average of 3,0.904
same,RPPA Shc_pY317.R.C Average,average of 3,1.847
same,RPPA Slfn11.G.C Average,average of 3,0.945
same,RPPA Smac.M.Q Average,average of 3,0.998
same,RPPA Smad1.R.V Average,average of 3,1.021
same,RPPA Smad3.R.V Average,average of 3,0.979
same,RPPA Snail.M.Q Average,average of 3,0.977
same,RPPA Sox2.R.V Average,average of 3,0.987
same,RPPA Sox17.R.V Average,average of 3,1.018
same,RPPA Src.M.V Average,average of 3,1.079
same,RPPA Src_pY416.R.V Average,average of 3,0.992
same,RPPA Src_pY527.R.V Average,average of 3,0.908
same,RPPA Stat1_pY701.R.V Average,average of 3,1.035
same,RPPA Stat3.R.C Average,average of 3,0.972
same,RPPA Stat3_pY705.R.C Average,average of 3,1.002
same,RPPA Stat5a.R.V Average,average of 3,0.958
same,RPPA TAZ.R.V Average,average of 3,0.958
same,RPPA TEAD.R.C Average,average of 3,0.967
same,RPPA TFAM.R.V Average,average of 3,0.914
same,RPPA TFRC.R.V Average,average of 3,0.926
same,RPPA TIGAR.R.V Average,average of 3,0.978
same,RPPA TRAP1.M.V Average,average of 3,1.032
same,RPPA TRIM25.R.C Average,average of 3,0.869
same,RPPA TRIP13.R.V Average,average of 3,1.026
same,RPPA Transglutaminase.M.V Average,average of 3,1.215
same,"RPPA signal, antibody TSC1.R.C, Average",average of 3 replicates,0.905
same,"RPPA signal, antibody TTF1.R.V, Average",average of 3 replicates,0.943
same,"RPPA signal, antibody TUFM.R.V, Average",average of 3 replicates,1.288
same,"RPPA signal, antibody Tuberin.R.V, Average",average of 3 replicates,0.933
same,"RPPA signal, antibody Tuberin_pT1462.R.V, Average",average of 3 replicates,1.050
same,"RPPA signal, antibody Twist.M.C, Average",average of 3 replicates,1.060
same,"RPPA signal, antibody Tyro3.R.V, Average",average of 3 replicates,1.231
same,"RPPA signal, antibody U.Histone.H2B.R.C, Average",average of 3 replicates,0.832
same,"RPPA signal, antibody UBAC1.R.V, Average",average of 3 replicates,0.948
same,"RPPA signal, antibody UBQLN4.M.C, Average",average of 3 replicates,0.975
same,"RPPA signal, antibody UGT1A.M.V, Average",average of 3 replicates,1.078
same,"RPPA signal, antibody ULK1_pS757.R.C, Average",average of 3 replicates,0.965
same,"RPPA signal, antibody UQCRC2.M.C, Average",average of 3 replicates,0.921
same,"RPPA signal, antibody UVRAG.R.C, Average",average of 3 replicates,0.967
same,"RPPA signal, antibody VASP.R.V, Average",average of 3 replicates,0.887
same,"RPPA signal, antibody VAV1.R.C, Average",average of 3 replicates,0.939
same,"RPPA signal, antibody VEGFR.2.R.V, Average",average of 3 replicates,0.919
